Test system: post-operative intra abdominal adhesions
Experiment: Post-operative intra abdominal adhesion formation in rat after laparotomy and musculoperitoneal incision
Type: in vivo
Protocol: Reduction in the occurrence of post-operative intra abdominal adhesions in rat by treatment with the mGluRgIa compound 2-methyl-6-(phenylethynyl)-pyridine (MPEP) at a dose of 12.5 mg/kg 12 male Sprague-Dawleys rats (Charles River Laboratories International, Sutzfeld, Germany), weighing between 250 to 300 g at the initiation of the procedure, were kept at a number of two individuals in one cage of type H3, lined with wood chips and housed in standardized conditions, at a constant room temperature (22° C.) with 12-hour light and dark cycles. All animals were provided free access to standard rodent chow, tap water, nesting material and libitum. All surgical procedures were performed under aseptic conditions in a dedicated surgical animal operating room. The animals were anesthetized using continuous inhalation isoflurane 1.5% to 4% in oxygen, numbered and randomly assigned to two groups of 6 individuals each: one treatment group and one vehicle group. After shaving and disinfection of the abdomen, a 50 mm long midline laparotomy was performed to gain access to the abdominal cavity. A 18 mm long sharp incision was then made through the musculoperitoneal tissue on the left lateral abdominal wall below the epigastric vessel parallel with the midline incision. The injury site was immediately closed with four single sutures places equidistantly using 5-0 polypropylene threat (Prolene; Ethicon, Johnson & Johnson, Somerville, N.J., USA). Just before closing the abdomen, the animals received either mGluRgIa (MPEP 45.35 mM in vehicle) at a dose of 12.5 mg MPEP/kg (treatment group), or vehicle (0.9% NaC1, 10 w % dimethylacetatamide, ˜50 mM hydrochloride, vehicle group), by injecting the solution into the abdominal cavity. The midline laparotomy was then closed in two layers continuous suture using 5-0 polypropylene for the abdomen and 4-0 for the skin. […] Formation of adhesions between the injury site and other uninjured structures within the abdominal cavity was macroscopically evaluated and quantified using the grading ‘0’ for absence of adhesions or ‘1’ for formed adhesions.

Cc1cccc(C#Cc2ccccc2)n1 [MPEP, 2-methyl-6-(phenylethynyl)-pyridine]
animals that had developed adhesions (male Sprague-Dawley rats, 12.5 mg MPEP/kg injected into the abdominal cavity just before closing, evaluated macroscopically after one week, vehicle group 4 of 6): 1 of the 6 animals
adhesions at the scar of the incision (picture of open abdomen) (treated rat no. 3 of Example 1, Pic. 1, 18 mm incision on left lateral abdominal wall): no visible adhesions
adhesion grading per animal (six animals, one digit each) (treatment group, 12.5 mg MPEP/kg into the abdominal cavity, one week after surgery, vehicle group=111100): 100000

From patent publication US20140011826A1, “METABOTROPIC GLUTAMATE RECEPTOR GROUP I ANTAGONISTS FOR TREATMENT OF ABNORMAL UNION OF TISSUE” (priority 2011, published 2014)
